Tested on: Amb a 1-specific T cell lines (TCL)
Assay: T cell epitope mapping of Amb a 1.3: proliferation (3H-thymidine uptake) of TCL stimulated with synthetic peptides
Assay type: cell-based, human
Conditions: for No. positive patients SI > 3 / No. positive patients SI > 5 / % (positive patients SI > 3) / % (positive patients SI > 5): TCL from 48 ragweed pollen-allergic patients, peptide 5 μg/ml; for No. positive patients SI > 3 / No. positive patients SI > 5: 3H-thymidine uptake after 48 hrs; for No. positive patients SI > 3 / % (positive patients SI > 3): stimulation index > 3; for No. positive patients SI > 5 / % (positive patients SI > 5): stimulation index > 5; for T cell activating region recognized by % of patients: classes of prevalence referring to SI>5, 48 TCL
Summary of the method: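 Amb a 1-specific TCL from ragweed-allergic patients, raised with ragweed extract or rAmb a 1.3, stimulated 48 h with 121 overlapping 12-mer peptides plus one C-terminal 13-mer (9-residue overlap) at 5 μg/ml. Proliferation by 3H-thymidine uptake; SI against the mean cpm of the ten least stimulating peptides, epitope when SI ≥3.0.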

Row | Sequence | No. positive patients SI > 3 | No. positive patients SI > 5 | % (positive patients SI > 3) | % (positive patients SI > 5) | reactivity with T cells isolated from allergic individuals | T cell activating region recognized by % of patients
1 | LCQGNRFLAPDD (Amb a 1 fragment) [Peptide 95] | 0 | 0 | 0.0% | 0.0% | – | –
2 | LDDDVANPKEGT (Amb a 1 fragment) [Peptide 24] | 2 | 1 | 4.2% | 2.1% | – | –
3 | LLENGAIFVTSG (Amb a 1 fragment) [Peptide 108] | 27 | 24 | 56.3% | 50.0% | reactivity with T cells | –
4 | LPGGMIKSNDGP (Amb a 1 fragment) [Peptide 51] | 6 | 3 | 12.5% | 6.3% | reactivity with T cells | –
5 | LRFAAAQNRPLW (Amb a 1 fragment) [Peptide 28] | 15 | 11 | 31.3% | 22.9% | reactivity with T cells | –
6 | LTLMNVKNIIIH (Amb a 1 fragment) [Peptide 44] | 15 | 9 | 31.3% | 18.8% | reactivity with T cells | recognized by 18.8%
7 | LTSSAGVLSCRP (Amb a 1 fragment) [Peptide 120] | 14 | 9 | 29.2% | 18.8% | reactivity with T cells | –
8 | LVDVTLGSTHVT (Amb a 1 fragment) [Peptide 66] | 4 | 4 | 8.3% | 8.3% | – | –
9 | MIPAEPGEAAIK (Amb a 1 fragment) [Peptide 116] | 6 | 4 | 12.5% | 8.3% | – | –
10 | MNVKNIIIHNIN (Amb a 1 fragment) [Peptide 45] | 2 | 0 | 4.2% | 0.0% | – | –
11 | MVINLNQELVVN (Amb a 1 fragment) [Peptide 34] | 2 | 2 | 4.2% | 4.2% | – | –
12 | NETRSLQACEAY (Amb a 1 fragment) [Peptide 5] | 4 | 0 | 8.3% | 0.0% | – | –
13 | NGAIFVTSGSDP (Amb a 1 fragment) [Peptide 109] | 12 | 9 | 25.0% | 18.8% | reactivity with T cells | –
14 | NGAIFVTSGSDPVLTPVQ (Amb a 1 fragment) [Peptide 109-111] | – | – | – | – | reactivity with T cells | recognized by 22.9%
15 | NGGLTLMNVKNI (Amb a 1 fragment) [Peptide 43] | 4 | 1 | 8.3% | 2.1% | – | –
16 | NIIDKCWRGKAD (Amb a 1 fragment) [Peptide 9] | 3 | 2 | 6.3% | 4.2% | – | –
17 | NINIHDVKVLPG (Amb a 1 fragment) [Peptide 48] | 10 | 9 | 20.8% | 18.8% | reactivity with T cells | –
18 | NLNQELVVNSDK (Amb a 1 fragment) [Peptide 35] | 1 | 1 | 2.1% | 2.1% | – | –
19 | NMFTDNVDQRMP (Amb a 1 fragment) [Peptide 81] | 7 | 6 | 14.6% | 12.5% | reactivity with T cells | –
20 | NPKEGTLRFAAA (Amb a 1 fragment) [Peptide 26] | 0 | 0 | 0.0% | 0.0% | – | –
21 | NRQALADCAQGF (Amb a 1 fragment) [Peptide 14] | 4 | 0 | 8.3% | 0.0% | – | –
22 | NVAGSSQIWIDH (Amb a 1 fragment) [Peptide 59] | 11 | 8 | 22.9% | 16.7% | reactivity with T cells | –
23 | NVAGSSQIWIDHCSLSKS (Amb a 1 fragment) [Peptide 59-61] | – | – | – | – | reactivity with T cells | recognized by 58.3%
24 | NYDRWGTYAIGG (Amb a 1 fragment) [Peptide 89] | 11 | 6 | 22.9% | 12.5% | reactivity with T cells | –

— US9360486B2, “Allergen fragments” (Biomay AG, priority 2007, dated 2016)
